From US11279714B2, “Anti-infective compounds” (priority 2014, dated 2022)
Converted amounts (≈) assume the structure as drawn.

Assays:
[1] = system: M. tuberculosis H37Rv expressing the green fluorescent protein (H37Rv-GFP); experiment: microbe, parasite or virus in culture; type: cell-based; details: Mycobacterium tuberculosis, H37RV, 120 h; read-out: QUM (MIC50)
[2] = system: Raw 264.7 cells infected with H37Rv-GFP; experiment: microbe, parasite or virus in culture; type: cell-based, M. tuberculosis; details: Mycobacterium tuberculosis, H37RV, 120 h; read-out: QIM (MIC50)

| SMILES | MIC50 [1] | MIC50 [2] |
| --- | --- | --- |
| CN(CC(O)C(F)(F)F)c1nc2sc(C(=O)Nc3ccc(-c4ccc(F)cn4)cc3)cc2s1 (stereo not drawn) [Compound 317] | 1 to 20 µM (≈ 0.497 to 9.93 µg/mL) | < 1 µM |
| CN(CCO)c1nc2sc(C(=O)Nc3ccc4oc(CCc5ccc(F)cc5)nc4c3)cc2s1 [Compound 252] | 1 to 20 µM (≈ 0.497 to 9.93 µg/mL) | < 1 µM |
| O=C(Nc1ccc(-c2ccc(F)cn2)cc1)c1cc2sc(NCCCN3CCOCC3)nc2s1 [Compound 328] | < 1 µM | < 1 µM |
| Cc1nc2cc(NC(=O)c3cc4sc(N(CCO)C(C)C)nc4s3)ccc2o1 [Compound 232] | 1 to 20 µM (≈ 0.417 to 8.33 µg/mL) | < 1 µM |
| CN(C)C(=O)C1CCN(c2nc3sc(C(=O)Nc4ccc(-c5ccc(F)cc5)cn4)cc3s2)CC1 [Compound 246] | 1 to 20 µM (≈ 0.51 to 10.2 µg/mL) | < 1 µM |
| Cc1nc2cc(NC(=O)c3cc4sc(N(C)CCN5CCOCC5)nc4s3)ccc2o1 [Compound 225] | 1 to 20 µM (≈ 0.458 to 9.15 µg/mL) | < 1 µM |
| CN(CCO)c1nc2sc(C(=O)Nc3ccc(-c4ccc(F)nc4)cc3)cc2s1 [Compound 272] | < 1 µM | < 1 µM |
| Cc1nc2cc(NC(=O)c3cc4sc(N5CCC(C(O)c6ccc(Cl)cc6)CC5)nc4s3)ccc2o1 (stereo not drawn) [Compound 206] | > 20 µM | < 1 µM |
| CN(CC(O)C(F)(F)F)c1nc2sc(C(=O)Nc3ccc(F)cc3)cc2s1 (stereo not drawn) [Compound 316] | 1 to 20 µM (≈ 0.419 to 8.39 µg/mL) | < 1 µM |
| COc1ccc(NC(=O)c2cc3nc(N4CCCCC4)sc3s2)cc1 [Compound 2] | > 20 µM | > 20 µM |
| Cc1ccc(-c2ccc(NC(=O)c3cc4sc(N5CCC(C(=O)N(C)C)CC5)nc4s3)cc2)nc1 [Compound 217] | 1 to 20 µM (≈ 0.506 to 10.1 µg/mL) | < 1 µM |
| CN(C)C(=O)C1CCN(c2nc3sc(C(=O)Nc4ccc5oc(-c6ccc(Cl)cc6)nc5c4)cc3s2)CC1 [Compound 214] | > 20 µM | < 1 µM |
| CN1CCN(CCNc2nc3sc(C(=O)Nc4ccc(-c5ccc(F)cn5)cc4)cc3s2)CC1 [Compound 325] | 1 to 20 µM (≈ 0.497 to 9.93 µg/mL) | < 1 µM |
| O=C(Nc1ccc(F)cc1)c1cc2sc(NCC(O)C(F)(F)F)nc2s1 (stereo not drawn) [Compound 330] | 1 to 20 µM (≈ 0.405 to 8.11 µg/mL) | < 1 µM |
| Cc1nc2cc(NC(=O)c3cc4sc(N5CCC(NC(=O)CC(C)(C)C)CC5)nc4s3)ccc2o1 [Compound 305] | > 20 µM | < 1 µM |
| COCCN(C)c1nc2sc(C(=O)Nc3ccc(-c4ccc(F)cc4)cn3)cc2s1 [Compound 273] | 1 to 20 µM (≈ 0.443 to 8.85 µg/mL) | < 1 µM |
| Cc1nc2cc(NC(=O)c3sc4nc(N5CCOCC5)sc4c3OCc3ccccc3)ccc2o1 [Compound 185] | > 20 µM | > 20 µM |
| O=C(Nc1ccc(N2CCC(O)(Cc3ccccc3)CC2)cc1)c1cc2sc(NCCN3CCOCC3)nc2s1 [Compound 294] | > 20 µM | < 1 µM |
| Cc1nc2cc(NC(=O)c3sc4nc(N5CCOCC5)sc4c3N)ccc2o1 [Compound 230] | > 20 µM | > 20 µM |

| SMILES | MIC50 [1] | MIC50 [2] |
| --- | --- | --- |
| Cc1nc2cc(CNC(=O)c3cc4sc(N5CCOCC5)nc4s3)ccc2o1 [Compound 229] | > 20 µM | 1 to 20 µM (≈ 0.415 to 8.29 µg/mL) |
| COC(=O)C1CCN(C(=O)c2cc3nc(N4CCCCC4)sc3s2)CC1 [Compound 24] | 1 to 20 µM (≈ 0.394 to 7.87 µg/mL) | > 20 µM |
| CN(C)C(=O)[C@@H]1CCN(c2nc3sc(C(=O)Nc4ccc(F)cc4)cc3s2)C1 [Compound 309] | 1 to 20 µM (≈ 0.419 to 8.37 µg/mL) | < 1 µM |
| O=C(Nc1ccc(F)cn1)c1cc2sc(NCCN3CCOCC3)nc2s1 [Compound 335] | 1 to 20 µM (≈ 0.407 to 8.15 µg/mL) | 1 to 20 µM (≈ 0.407 to 8.15 µg/mL) |
| Cc1nc2cc(NC(=O)c3cc4sc(NCCN5CCCCC5)nc4s3)ccc2o1 [Compound 297] | > 20 µM | 1 to 20 µM (≈ 0.442 to 8.83 µg/mL) |
| Cc1nc2cc(NC(=O)c3cc4sc(N(CCO)C5CCCCC5)nc4s3)ccc2o1 [Compound 227] | 1 to 20 µM (≈ 0.457 to 9.13 µg/mL) | > 20 µM |
| Cc1nc2cc(NC(=O)c3cc4sc(N5CCOC(CO)C5)nc4s3)ccc2o1 (stereo not drawn) [Compound 152] | 1 to 20 µM (≈ 0.431 to 8.61 µg/mL) | 1 to 20 µM (≈ 0.431 to 8.61 µg/mL) |
| COc1ccc(NC(=O)c2cc3sc(N4CCNCC4)nc3s2)cc1 [Compound 92] | 1 to 20 µM (≈ 0.374 to 7.49 µg/mL) | 1 to 20 µM (≈ 0.374 to 7.49 µg/mL) |
| Cc1ccc(-c2ccc(NC(=O)c3cc4sc(N5CCNCC5)nc4s3)cc2)nc1 [Compound 346] | 1 to 20 µM (≈ 0.436 to 8.71 µg/mL) | < 1 µM |
| O=C(Nc1ccc(F)cn1)c1cc2sc(N3CCNCC3)nc2s1 [Compound 342] | 1 to 20 µM (≈ 0.363 to 7.27 µg/mL) | < 1 µM |
| O=C(Nc1ccc(F)cn1)c1cc2sc(N3CCOCC3)nc2s1 [Compound 105] | 1 to 20 µM (≈ 0.364 to 7.29 µg/mL) | < 1 µM |
| COCCN(c1nc2sc(C(=O)Nc3ccc4oc(C)nc4c3)cc2s1)C1CC1 [Compound 270] | > 20 µM | > 20 µM |
| Cc1nc2cc(NC(=O)c3cc4sc(N5CCN(C(=O)N(C)C)CC5)nc4s3)ccc2o1 [Compound 237] | < 1 µM | < 1 µM |
| COC(=O)c1ccc(NC(=O)c2cc3nc(N4CCCCC4)sc3s2)cc1 [Compound 13] | 1 to 20 µM (≈ 0.402 to 8.03 µg/mL) | < 1 µM |
| Cc1nc2cc(NC(=O)c3cc4sc(N5CCC(NC(=O)OC(C)(C)C)CC5)nc4s3)ccc2o1 [Compound 233] | 1 to 20 µM (≈ 0.514 to 10.3 µg/mL) | < 1 µM |
| Cc1nc2cc(NC(=O)c3cc4ccc(N5CCOCC5)nc4s3)ccc2o1 [Compound 176] | > 20 µM | > 20 µM |
| COc1ccc(NC(=O)c2cc3sc(N4CCc5cc(OC)ccc5C4)nc3s2)cc1 [Compound 168] | 1 to 20 µM (≈ 0.452 to 9.03 µg/mL) | < 1 µM |
| O=C(Nc1ccc(CN2CCN(c3ccc(F)cc3)CC2)cc1)c1cc2sc(N3CCOCC3)nc2s1 [Compound 211] | < 1 µM | < 1 µM |
| Cc1nc2cc(NC(=O)c3cc4sc(N5CC[C@@H](C(=O)N(C)C)C5)nc4s3)ccc2o1 [Compound 223] | 1 to 20 µM (≈ 0.456 to 9.11 µg/mL) | 1 to 20 µM (≈ 0.456 to 9.11 µg/mL) |

| SMILES | MIC50 [1] | MIC50 [2] |
| --- | --- | --- |
| O=C(Nc1ccc(N2CCC(C(=O)c3ccc(Cl)cc3)CC2)cc1)c1cc2sc(N3CCOCC3)nc2s1 [Compound 226] | > 20 µM | < 1 µM |
| CN(C)C(=O)C1CCN(c2nc3sc(C(=O)Nc4ccc(-c5ccc(F)cc5)nc4)cc3s2)CC1 [Compound 231] | < 1 µM | < 1 µM |
| Cc1ccc(-c2ccc(NC(=O)c3cc4sc(N5CCC(C(=O)N(C)C)CC5)nc4s3)cc2)cn1 [Compound 204] | < 1 µM | < 1 µM |
| CN1CCC(Nc2nc3sc(C(=O)Nc4ccc(F)cc4)cc3s2)CC1 [Compound 313] | > 20 µM | 1 to 20 µM (≈ 0.391 to 7.81 µg/mL) |
| CCN(CC)c1nc2sc(C(=O)Nc3ccc(OC)cc3)cc2s1 [Compound 287] | < 1 µM | < 1 µM |
| COCCN(c1nc2sc(C(=O)Nc3ccc4oc(C)nc4c3)cc2s1)C(C)C [Compound 242] | 1 to 20 µM (≈ 0.431 to 8.61 µg/mL) | < 1 µM |
| Cc1nc2cc(NC(=O)c3cc4sc(N(C)CCCO)nc4s3)ccc2o1 [Compound 238] | 1 to 20 µM (≈ 0.403 to 8.05 µg/mL) | < 1 µM |
| Cc1nc2cc(NC(=O)c3cc4sc(NCCC5CCOCC5)nc4s3)ccc2o1 [Compound 333] | 1 to 20 µM (≈ 0.443 to 8.85 µg/mL) | < 1 µM |
| N#Cc1ccc(NC(=O)c2cc3sc(N4CCC(O)CC4)nc3s2)cc1 [Compound 133] | 1 to 20 µM (≈ 0.384 to 7.69 µg/mL) | < 1 µM |
| CN(C)C(=O)C1CCN(c2nc3sc(C(=O)Nc4ccc(-c5nn(C)cc5F)cc4)cc3s2)CC1 [Compound 228] | < 1 µM | < 1 µM |
| Cc1nc2cc(NC(=O)c3cc4sc(NCCN5CCOCC5)nc4s3)ccc2o1 [Compound 224] | 1 to 20 µM (≈ 0.444 to 8.87 µg/mL) | < 1 µM |
| CCN(CCOC)c1nc2sc(C(=O)Nc3ccc4oc(C)nc4c3)cc2s1 [Compound 269] | > 20 µM | > 20 µM |
| COCCNc1nc2sc(C(=O)Nc3ccc4oc(C)nc4c3)cc2s1 [Compound 266] | < 1 µM | < 1 µM |
| CC1CCN(c2ccc(NC(=O)c3cc4sc(N5CCNCC5)nc4s3)cc2)CC1 [Compound 344] | 1 to 20 µM (≈ 0.442 to 8.83 µg/mL) | < 1 µM |
| CN(C)C(=O)C1CCN(c2nc3sc(C(=O)Nc4ccc(-c5ccc(F)nc5)cc4)cc3s2)CC1 [Compound 216] | < 1 µM | < 1 µM |
| O=C(Nc1ccc(F)cc1)c1cc2sc(N3CCC(Oc4ccc(Cl)cc4)CC3)nc2s1 [Compound 235] | > 20 µM | < 1 µM |
| Cc1nc2cc(NC(=O)c3cc4sc(N5CCC(CC(=O)N(C)C)CC5)nc4s3)ccc2o1 [Compound 307] | < 1 µM | < 1 µM |
| O=C(Nc1ccc2[nH]cnc2c1)c1cc2sc(N3CCOCC3)nc2s1 [Compound 113] | > 20 µM | > 20 µM |
| COCCN(C)c1nc2sc(C(=O)Nc3ccc(-c4ccc(F)nc4)cc3)cc2s1 [Compound 271] | < 1 µM | < 1 µM |
